Test results taken from PubChem BioAssay AID1963867 (Molecular Pharmacology Branch, DTP, NCI, 2024).

Tested on: KRAS-mutant PDC tumor spheroid with HUVEC/MSC, viability
Experiment: Anticancer human tumor 327498-153-R-J2-PDC patient-derived uterine carcinosarcoma cell line growth inhibition [KRAS2]
Details: for IC50: curve of first compound; for viability, T/C: stronger effect = lower value
Excerpt: Multicellular complex tumor spheroid response to RAS pathway inhibitors in combination with a targeted agents in patient-derived cell lines with oncogenic KRAS variants from multiple cancer types
A high-throughput screen of multi-cell type tumor spheroids was designed to identify active combinations of targeted small molecules and KRAS pathway inhibitors. Complex spheroids include a stromal component modeled by human endothelial cells (HUVEC) and fibroblasts modeled by human mesenchymal stem cells (MSCs). The concentration ranges selected for each drug and investigational agent were based upon clinically achievable concentrations if the clinical Cmax of the agent was known.
Compounds. The drugs and investigational agents: BI-3406 (NSC825286), BAY-293 (NSC824723), batoprotafib (TNO155; NSC825523), sotorasib (AMG 510; NSC818433), MRTX1257 (NSC819558), elimusertib (BAY 1895344; NSC800525), molibresib (GSK525762; NSC774829), temuterkib (LY3214996; NSC803410), venetoclax (NSC766270), alisertib (NSC759677), olaparib (NSC753686), talazoparib (NSC767125), erdafitinib (NSC781556), ipatasertib (NSC767898), cabozantinib (NSC761068), nintedanib (NSC756659), abemaciclib (NSC768073), docetaxel (NSC628503), trametinib (NSC758246), and sapanisertib (NSC764658) were obtained from the National Cancer Institute (NCI) Developmental Therapeutics Program Chemical Repository. The FDA-approved anticancer drug set is available from the Developmental Therapeutics Program. […] The stock solutions were prepared in dimethyl sulfoxide (DMSO, Sigma-Aldrich, St. Louis, MO, cat. D2650) at 800-fold the tested concentration and stored at -70 degrees C prior to their use. All drugs and investigational agents were tested over a range starting from a high concentration at or near the clinical Cmax and decreasing in half-log increments. If the clinical Cmax for an agent had not been determined, the highest concentration tested was 10 microM.
Cell Culture. All cells were maintained in an incubator at 37 degrees C and 5% CO2 with 95% humidity. The PDC lines were cultured according to standard operating procedures established by the NCI PDMR (https://pdmr.cancer.gov/sops/default.htm). Briefly, all PDCs were thawed and cultured in Matrigel-coated flasks prepared with a working solution of 1X Ham's F-12 nutrient mix, without supplementation (Invitrogen, Waltham, MA, cat. 11765054), 100 U/mL penicillin-streptomycin (Invitrogen, cat. 15140122), and 2.5% Matrigel (Corning Inc., Corning, NY, cat. 354248) for the first three passages. All PDCs were cultured in complete DMEM/F-12 media containing advanced DMEM/F-12 (Invitrogen, cat. 12634028), 4.9% defined fetal bovine serum, heat inactivated (HyClone Laboratories Inc., Logan, UT, cat. SH30070.03HI), 389 ng/mL hydrocortisone (Sigma-Aldrich, cat. H4001), 9.7 ng/mL human EGF recombinant protein (Invitrogen, cat. PHG0313), 23.4 microg/mL adenine (Sigma-Aldrich, cat. A2786), 97.3 U/mL penicillin-streptomycin (Invitrogen, cat. 15140122), 1.9 mM L-glutamine (Invitrogen, cat. 25030081), and 9.7 microM Y-27632 dihydrochloride (Tocris Bioscience, Bristol, United Kingdom, cat. 1254). The PDCs were cultured in complete DMEM/F12 media without 9.7 microM Y-27632 dihydrochloride for at least two passages prior to the screen. The established cell line HOP-62 was cultured in RPMI 1640 medium, HEPES (Invitrogen, cat. 22400105) with 10% defined fetal bovine serum (HyClone Laboratories Inc., cat. SH30070.03) and 2 mM L-glutamine (Invitrogen, cat. 25030081). The pooled donor HUVEC were cultured in endothelial cell growth medium 2 (PromoCell, Heidelberg, Germany, cat. C-22011) and the hMSC were cultured in mesenchymal stem cell growth medium 2 (PromoCell, cat. C-28009). For all experiments, HUVEC and hMSC were used at passages </=5, while the malignant cell lines were used at passages </=15. […]

[1] = second compound 0.1 µM, first compound 0.0316 µM
[2] = second compound 0.1 µM, first compound 0.1 µM
[3] = second compound 0.316 µM, first compound 0.0316 µM
[4] = second compound 0.316 µM, first compound 0.1 µM
[5] = second compound 1 µM, first compound 0.0316 µM
[6] = second compound 1 µM, first compound 0.1 µM
[7] = second compound 3.16 µM, first compound 0.0316 µM
[8] = second compound 3.16 µM, first compound 0.1 µM
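Note: spheroids exposed to agents for seven days before reading.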
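Throughout, for viability, T/C: 100% = DMSO vehicle wells so lower means fewer viable cells.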

Question: Which results are given for `CC(C)NCC(C(=O)N1CCN(c2ncnc3c2C(C)CC3O)CC1)c1ccc(Cl)cc1` (stereo not given) + C=CC(=O)N1CCN(c2nc(OCC3CCCN3C)nc3c2CCN(c2cccc4cccc(C)c24)C3)CC1CC#N?
Answer: IC50 (second compound 0.0316 µM): 66.9 nM; IC50 (second compound 0.1 µM): < 31.6 nM; IC50 (second compound 0.316 µM): < 31.6 nM; IC50 (second compound 1 µM): < 31.6 nM; IC50 (second compound 3.16 µM): < 31.6 nM; viability, T/C (second compound 0.0316 µM, first compound 0.0316 µM): 59.5%; viability, T/C (second compound 0.0316 µM, first compound 0.1 µM): 44.3%; viability, T/C (second compound 0.0316 µM, first compound 0.316 µM): 32.8%; viability, T/C (second compound 0.0316 µM, first compound 1 µM): 22.8%; viability, T/C (second compound 0.0316 µM, first compound 3.16 µM): 15.5%; viability, T/C (second compound 0.0316 µM, first compound 10 µM): 9.69%; viability, T/C [1]: 48.7%; viability, T/C [2]: 32.4%; viability, T/C (second compound 0.1 µM, first compound 0.316 µM): 22.1%; viability, T/C (second compound 0.1 µM, first compound 1 µM): 15.7%; viability, T/C (second compound 0.1 µM, first compound 3.16 µM): 12.7%; viability, T/C (second compound 0.1 µM, first compound 10 µM): 11.4%; viability, T/C [3]: 42.5%; viability, T/C [4]: 29.8%; viability, T/C (second compound 0.316 µM, first compound 0.316 µM): 18.3%; viability, T/C (second compound 0.316 µM, first compound 1 µM): 13.5%; viability, T/C (second compound 0.316 µM, first compound 3.16 µM): 12.3%; viability, T/C (second compound 0.316 µM, first compound 10 µM): 7.28%; viability, T/C [5]: 34.5%; viability, T/C [6]: 25.2%; viability, T/C (second compound 1 µM, first compound 0.316 µM): 15.1%; viability, T/C (second compound 1 µM, first compound 1 µM): 12.6%; viability, T/C (second compound 1 µM, first compound 3.16 µM): 9.14%; viability, T/C (second compound 1 µM, first compound 10 µM): 6.92%; viability, T/C [7]: 0.26%; viability, T/C [8]: 0.41%; viability, T/C (second compound 3.16 µM, first compound 0.316 µM): 0.51%; viability, T/C (second compound 3.16 µM, first compound 1 µM): 0.15%; viability, T/C (second compound 3.16 µM, first compound 3.16 µM): 0.14%; viability, T/C (second compound 3.16 µM, first compound 10 µM): 0.21%

Question: What does the source list for `Cn1ncnc1[C@H]1c2n[nH]c(=O)c3cc(F)cc(c23)N[C@@H]1c1ccc(F)cc1` + COc1cc2nc(C)nc(NC(C)c3cc(N)cc(C(F)(F)F)c3)c2cc1OC1CCOC1?
Answer: IC50 (second compound 0.1 µM): 12.5 nM; IC50 (second compound 0.316 µM): 9.03 nM; IC50 (second compound 1 µM): 4.31 nM; IC50 (second compound 3.16 µM): 7.37 nM; IC50 (second compound 10 µM): 1.4 nM; viability, T/C (second compound 0.1 µM, first compound 0.000316 µM): 79.3%; viability, T/C (second compound 0.1 µM, first compound 0.001 µM): 82.3%; viability, T/C (second compound 0.1 µM, first compound 0.00316 µM): 68.9%; viability, T/C (second compound 0.1 µM, first compound 0.01 µM): 54.5%; viability, T/C [1]: 33.3%; viability, T/C [2]: 20.1%; viability, T/C (second compound 0.316 µM, first compound 0.000316 µM): 82.1%; viability, T/C (second compound 0.316 µM, first compound 0.001 µM): 63.5%; viability, T/C (second compound 0.316 µM, first compound 0.00316 µM): 68.6%; viability, T/C (second compound 0.316 µM, first compound 0.01 µM): 48.1%; viability, T/C [3]: 32.2%; viability, T/C [4]: 20.5%; viability, T/C (second compound 1 µM, first compound 0.000316 µM): 76.6%; viability, T/C (second compound 1 µM, first compound 0.001 µM): 69.7%; viability, T/C (second compound 1 µM, first compound 0.00316 µM): 50%; viability, T/C (second compound 1 µM, first compound 0.01 µM): 42.1%; viability, T/C [5]: 28.7%; viability, T/C [6]: 20.1%; viability, T/C (second compound 3.16 µM, first compound 0.000316 µM): 62.9%; viability, T/C (second compound 3.16 µM, first compound 0.001 µM): 68.8%; viability, T/C (second compound 3.16 µM, first compound 0.00316 µM): 58.1%; viability, T/C (second compound 3.16 µM, first compound 0.01 µM): 47.3%; viability, T/C [7]: 26.5%; viability, T/C [8]: 20.4%; viability, T/C (second compound 10 µM, first compound 0.000316 µM): 50%; viability, T/C (second compound 10 µM, first compound 0.001 µM): 51.6%; viability, T/C (second compound 10 µM, first compound 0.00316 µM): 48.5%; viability, T/C (second compound 10 µM, first compound 0.01 µM): 42%; viability, T/C (second compound 10 µM, first compound 0.0316 µM): 27.8%; viability, T/C (second compound 10 µM, first compound 0.1 µM): 18.5%
